Tests used:
Assay type in all cases: cell-based, human
[1] = test system: NCI-H460; test: NCI-60 five-dose assay; conditions: NCI-H460 (Non-Small Cell Lung Cancer), 48 h
[2] = test system: U251; test: NCI-60 five-dose assay; conditions: U251 (CNS Cancer), 48 h
[3] = test system: SW-620; test: NCI-60 five-dose assay; conditions: SW-620 (Colon Cancer), 48 h
[4] = test system: RPMI-8226; test: NCI-60 five-dose assay; conditions: RPMI-8226 (Leukemia), 48 h
[5] = test system: SK-MEL-5; test: NCI-60 five-dose assay; conditions: SK-MEL-5 (Melanoma), 48 h
[6] = test system: IGROV1; test: NCI-60 five-dose assay; conditions: IGROV1 (Ovarian Cancer), 48 h
[7] = test system: UO-31; test: NCI-60 five-dose assay; conditions: UO-31 (Renal Cancer), 48 h
[8] = test system: Ovarian Cancer subpanel; test: NCI-60 five-dose assay, subpanel
[9] = test system: OVCAR-3; test: NCI-60 five-dose assay; conditions: OVCAR-3 (Ovarian Cancer), 48 h
[10] = test system: Leukemia subpanel; test: NCI-60 five-dose assay, subpanel
[11] = test system: HCT-15; test: NCI-60 five-dose assay; conditions: HCT-15 (Colon Cancer), 48 h
[12] = test system: MDA-MB-435; test: NCI-60 five-dose assay; conditions: MDA-MB-435 (Melanoma), 48 h
[13] = test system: NCI-H322M; test: NCI-60 five-dose assay; conditions: NCI-H322M (Non-Small Cell Lung Cancer), 48 h
[14] = test system: BT-549; test: NCI-60 five-dose assay; conditions: BT-549 (Breast Cancer), 48 h
[15] = test system: Renal Cancer subpanel; test: NCI-60 five-dose assay, subpanel
[16] = test system: SF-539; test: NCI-60 five-dose assay; conditions: SF-539 (CNS Cancer), 48 h
[17] = test system: NCI/ADR-RES; test: NCI-60 five-dose assay; conditions: NCI/ADR-RES (Ovarian Cancer), 48 h
[18] = test system: OVCAR-4; test: NCI-60 five-dose assay; conditions: OVCAR-4 (Ovarian Cancer), 48 h
[19] = test system: NCI-H23; test: NCI-60 five-dose assay; conditions: NCI-H23 (Non-Small Cell Lung Cancer), 48 h
[20] = test system: SF-295; test: NCI-60 five-dose assay; conditions: SF-295 (CNS Cancer), 48 h
[21] = test system: HL-60(TB); test: NCI-60 five-dose assay; conditions: HL-60(TB) (Leukemia), 48 h
[22] = test system: HS 578T; test: NCI-60 five-dose assay; conditions: HS 578T (Breast Cancer), 48 h
[23] = test system: HOP-62; test: NCI-60 five-dose assay; conditions: HOP-62 (Non-Small Cell Lung Cancer), 48 h
[24] = test system: SK-MEL-2; test: NCI-60 five-dose assay; conditions: SK-MEL-2 (Melanoma), 48 h
[25] = Homo sapiens, read-out: GI50 Conc. per Cell Line
[26] = Homo sapiens, read-out: LC50 (the source's name)

O=C(NN=Cc1ccc(Cl)cc1)c1ccc2[nH]c(-c3ccc(Cl)cc3)nc2c1 [Compound 4e, N′-(4-Chlorobenzylidene)-2-(4-chlorophenyl)-1H-benzimidazole-5-carbohydrazide]
LC50 ([1]; Homo sapiens): 6.3 µM | GI50 [1, 25]: 1.56 µM | TGI [1]: 3.13 µM | GI50 ([2]; Homo sapiens, U-251, read-out: GI50 Conc. per Cell Line): 2.1 µM | CC50 ([2]; Homo sapiens, U-251, read-out: LC50 (the source's name)): 8.35 µM | TGI [2]: 4.18 µM | LC50 ([3]; Homo sapiens): 7.43 µM | GI50 [3, 25]: 1.83 µM | TGI [3]: 3.69 µM | GI50 [4, 25]: 1.16 µM | CC50 [4, 26]: 16.5 µM | TGI [4]: 3.52 µM | GI50 [5, 25]: 1.81 µM | CC50 [5, 26]: 6.33 µM | TGI [5]: 3.39 µM | GI50 ([6]; Homo sapiens, IGROV-1, read-out: GI50 Conc. per Cell Line): 1.5 µM | CC50 ([6]; Homo sapiens, IGROV-1, read-out: LC50 (the source's name)): 5.92 µM | TGI [6]: 2.98 µM | GI50 [7, 25]: 1.57 µM | CC50 [7, 26]: 5.67 µM | TGI [7]: 2.99 µM | GI50 ([8]; Homo sapiens, Ovarian Cancer, average sensitivity of all subpanel cell lines, read-out: GI50 Subpanel MID b): 1.81 µM | GI50 Selectivity Ratio (MID a/MID b) ([8]; Ovarian Cancer subpanel): 0.99 | GI50 [9, 25]: 1.84 µM | CC50 [9, 26]: 6.28 µM | TGI [9]: 3.39 µM | GI50 ([10]; Homo sapiens, Leukemia, average sensitivity of all subpanel cell lines, read-out: GI50 Subpanel MID b): 1.33 µM | GI50 Selectivity Ratio (MID a/MID b) ([10]; Leukemia subpanel): 1.35 | TGI [11]: 3.03 µM | GI50 [11, 25]: 1.42 µM | CC50 [11, 26]: 6.46 µM | GI50 [12, 25]: 1.73 µM | CC50 [12, 26]: 6.49 µM | TGI [12]: 3.35 µM | GI50 [13, 25]: 2.15 µM | CC50 [13, 26]: 19.8 µM | TGI [13]: 5.26 µM | TGI [14]: 2.13 µM | GI50 [14, 25]: 4.93 µM | CC50 [14, 26]: 75.8 µM | GI50 ([15]; Homo sapiens, Renal Cancer, average sensitivity of all subpanel cell lines, read-out: GI50 Subpanel MID b): 1.77 µM | GI50 Selectivity Ratio (MID a/MID b) ([15]; Renal Cancer subpanel): 1.01 | GI50 [16, 25]: 1.7 µM | CC50 [16, 26]: 5.93 µM | TGI [16]: 3.17 µM | GI50 [17, 25]: 1.83 µM | CC50 [17, 26]: 12.7 µM | TGI [17]: 4.43 µM | GI50 [18, 25]: 1.74 µM | CC50 [18, 26]: 6.23 µM | TGI [18]: 3.29 µM | GI50 [19, 25]: 1.93 µM | CC50 [19, 26]: 10.8 µM | TGI [19]: 4.43 µM | GI50 [20, 25]: 1.86 µM | CC50 [20, 26]: 6.56 µM | TGI [20]: 3.50 µM | TGI [21]: 6.53 µM | GI50 [21, 25]: 1.85 µM | CC50 [21, 26]: 54.8 µM | TGI [22]: 5.27 µM | GI50 [22, 25]: 2.28 µM | CC50 [22, 26]: 63.2 µM | TGI [23]: 4.10 µM | GI50 [23, 25]: 1.8 µM | CC50 [23, 26]: 9.32 µM | LC50 ([24]; Homo sapiens): 11.4 µM | GI50 [24, 25]: 2.09 µM | TGI [24]: 4.64 µM

Source: paper PMC10819888, “Benzimidazole-Based Derivatives as Apoptotic Antiproliferative Agents: Design, Synthesis, Docking, and Mechanistic Studies” (Molecules, 2024)
